US10111950B2, “Modified glycolipids and methods of making and using the same” (Vaccinex, Inc., priority 2013, dated 2018)
Values belong to the compound of their own block, whether it stands above or below them.

Experiments:
mCD1d.CEA fusion protein = test: Direct comparison of DB12-8 and 7DW8-5 complexes with mCD1d.CEA fusion protein, L363 ELISA; format: binding, murine
Description: (§1) The ligand binding affinity of plate bound mCD1d was measured by ELISA using mAb L363 to detect murine CD1d/αGalCer complexes. ELISA plates were coated with mCD1d (10 μg/ml, 30 μl/well) overnight at 4° C. in PBS pH 8.2. Supernatant was then removed along with any unbound protein. Glycolipids (5 μM, 30 μl/well) were loaded and allowed to incubate overnight at 25° C. Supernatant was again removed and the complexes were washed three times with PBS to remove any unbound glycolipid. For those complexes that underwent UV activation, UV crosslinking was performed in solution (30 μl/well PBS) and at a fixed wavelength of 365 nm from a UV lamp (RAD-FREE long wave UV lamp, Schleicher & Schuell). The UV lamp was placed one inch from the sample and the sample was allowed to sit on ice for 1 hr.
(§2) The ligand binding affinity of plate bound mCD1d was detected by iNKT DN3A4-1.2 hybridoma stimulation assay. mCD1d (10 μg/ml) was loaded with glycolipids (5 μM) overnight at 25° C. ELISA plates were coated with mCD1d:GC complexes (2.5 μg/ml, 30 μl/well) for 12-18 hours at 4° C. in PBS pH 8.2. Supernatant was then removed and the complexes were washed three times with PBS to remove any unbound glycolipid and protein. For those complexes that underwent UV activation, UV crosslinking was performed in solution (30 μl/well PBS) and at a fixed wavelength of 365 nm from a UV lamp (RAD-FREE long wave UV lamp, Schleicher & Schuell). The UV lamp was placed one inch from the sample and the sample was allowed to sit on ice for 1 hr. Supernatant was then removed and the complexes were washed three times with PBS to remove any unbound glycolipid and protein.
mCD1d.CEA (10 μg/ml), a recombinant mCD1d protein genetically fused with a single chain Fv antibody fragment specific for the tumor associated antigen CEA, was loaded with glycolipids (5 μM) overnight at 25° C. in PBS pH8.2 with 0.05% tyloxapol. The mCD1d.CEA:GC complexes (10 μg/ml, 30 μl/well) were coated onto wells of high binding ELISA 96 well plates overnight at 4° C. UV exposure and incubation to allow dissociation over 3 days were performed as described in Examples 6 and 7.
A scale up of the complex formation in solution was performed using a 10-fold increased concentration of protein and glycolipid and the results are shown in FIG. 9C-9D. mCD1d.CEA (100 μg/ml) was loaded with DB12-8 (50 μM respectively) overnight at 25° C. in PBS pH8.2 with 0.05% tyloxapol. DB12-8:mCD1d.CEA complexes were diluted down to 10 μg/ml and were coated onto the high binding ELISA plates (30 μl/well), overnight at 4° C. UV exposure and incubation to allow dissociation over 3 days were performed as described in Examples 6 and 7.

plate bound mCD1d = molecular target: T1, plate bound mCD1d (Mus musculus, UniProt P11609); test: Ligand binding to plate bound mCD1d with and without UV activation, ELISA using mAb L363; design: species or system murine; details: for dissociation of CD1d:glycolipid complex after 3 days (L363 ELISA): 3 days in PBS+0.05% Triton X-100 at 25° C.
T1 construct: recombinant soluble murine CD1d (mCD1d) was diluted to 400 μg/ml in PBS pH 7.2
T1 sequence (P11609 22-305 limits assumed): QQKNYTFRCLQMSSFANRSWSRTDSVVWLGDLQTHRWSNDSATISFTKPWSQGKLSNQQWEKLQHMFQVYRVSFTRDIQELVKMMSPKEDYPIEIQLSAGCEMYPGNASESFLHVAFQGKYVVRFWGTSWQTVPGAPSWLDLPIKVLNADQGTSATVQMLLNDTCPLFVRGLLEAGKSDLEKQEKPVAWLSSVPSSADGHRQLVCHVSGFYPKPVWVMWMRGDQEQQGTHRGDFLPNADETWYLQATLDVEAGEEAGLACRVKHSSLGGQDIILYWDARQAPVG
T1 sequence (P01887 21-119 partner): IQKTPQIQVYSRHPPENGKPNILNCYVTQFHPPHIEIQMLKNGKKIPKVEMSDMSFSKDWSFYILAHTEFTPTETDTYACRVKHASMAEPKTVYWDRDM
Description: as §1

[1] = system: iNKT hybridoma DN3A4-1.2 with plate bound mCD1d; test: Plate bound mCD1d:glycolipid complexes with and without UV activation, iNKT DN3A4-1.2 hybridoma stimulation assay (IL-2 ELISA); format: cell-based, murine; details: for iNKT stimulation post-dissociation (IL-2 ELISA): after 3 days dissociation, non-crosslinked mCD1d complexes (UV state not stated for 7DW8-5)
Description: as §2

[2] = molecular target: T2, soluble recombinant mCD1d (Mus musculus, UniProt P11609); test: Direct comparison of DB12-8 and 7DW8-5 complexes with soluble recombinant mCD1d, L363 ELISA; format: binding, murine
T2 construct: A soluble recombinant mCD1d protein (10 μg/ml) was loaded with glycolipids
T2 sequence (P11609 22-305 limits assumed): T1 sequence (P11609 22-305 limits assumed)
T2 sequence (P01887 21-119 partner): T1 sequence (P01887 21-119 partner)
Description: as §1, §2
A soluble recombinant mCD1d protein (10 μg/ml) was loaded with glycolipids (5 μM) overnight at 25° C. in PBS pH8.2 with 0.05% tyloxapol. The mCD1d:GC complexes (10 μg/ml, 30 μl/well) were coated onto the high binding ELISA plates, overnight at 4° C. UV exposure and incubation to allow dissociation over 3 days was performed as described in Examples 6 and 7.

iNKT cells = details: repeated stimulation; cited from earlier work
[3] = system: iNKT hybridoma DN3A4-1.2 with murine CD1d-expressing antigen presenting cells; test: iNKT hybridoma stimulation (IL-2 secretion) with mCD1d expressing BMDCs; format: cell-based, mouse; details: BMDCs from C57BL/6 mice, BPGC 5 to 0.01 μg/ml for 3 hrs, hybridoma 18 hrs
Description: The activated natural killer cells were calculated based on those secreting IL-2. Specifically, bone marrow-derived dendritic cells (BMDCs) from C57BL/6 mice (10,000 cells in 100 μl culture medium) were plated in wells of a 96 well tissue culture plate and allowed to adhere to the plates for 30 minutes at 37° C. The cultures were then exposed to varying BPGC concentrations ranging between 5 and 0.01 μg/ml in 100 μl for 3 hrs at 37° C. Glycolipids not taken up by BMDCs were removed by washing with culture medium. To detect the BPGC presentation by CD1d, iNKT hybridoma DN3A4-1.2 (5000 cells in 100 μl volume) was added and the stimulation was detected by the level of IL-2 secreted in the supernatant following 18 hrs of incubation at 37° C.

[4] = system: iNKT hybridoma DN3A4-1.2 with human CD1d transfected HeLa cells; test: iNKT hybridoma stimulation (IL-2 secretion) with hCD1d expressing HeLa cells; format: cell-based; details: BPGC 5 to 0.01 μg/ml for 3 hrs, hybridoma 18 hours
Description: The activated natural killer cells were again calculated based on those secreting IL-2. Specifically, plate bound human CD1d transfected HeLa cells (10,000 cells in 100 μl medium) were plated in a 96 well tissue culture plate and allowed to adhere to the plates for 30 minutes at 37° C. Adherent HeLa cells were treated with varying BPGC concentrations ranging between 5 and 0.01 μg/ml in 100 μl for 3 hrs at 37° C. Glycolipid not taken up by cells was removed by washing with medium. To detect the BPGC presentation by CD1d, iNKT hybridoma DN3A4-1.2 (5000 cells in 100 μl volume) was added and the stimulation was detected by the level of IL-2 secreted in the supernatant following incubation at 37° C. for 18 hours.

- dissociation of CD1d:glycolipid complex after 3 days (L363 ELISA) (plate bound mCD1d; UV irradiated 365 nm 1 hr): dissociated after 3 days
- dissociation of CD1d:glycolipid complex after 3 days (L363 ELISA) (plate bound mCD1d; not UV irradiated): dissociated after 3 days
- dissociation after 3 days (L363 ELISA signal) ([2]; UV exposure at 365 nm): almost complete loss of signal
- affinity to CD1d, complex detected by L363 ELISA ([2]; mCD1d 10 μg/ml, glycolipid 5 μM): showed affinity to CD1d
- dissociation after 3 days (L363 ELISA signal) ([2]; non UV-crosslinked state): almost complete loss of signal
SMILES: CCCCCCCCCCCCCC[C@@H](O)[C@@H](O)[C@H](CO[C@H]1O[C@H](CO)[C@H](O)[C@H](O)[C@H]1O)NC(=O)CCCCCCCCCCc1ccc(F)cc1 [Compound 7DW8-5, reference compound]
- dissociation after 3 days (L363 ELISA signal) (mCD1d.CEA fusion protein; UV exposure at 365 nm): almost complete loss of signal
- affinity to CD1d, complex detected by L363 ELISA (mCD1d.CEA fusion protein; mCD1d.CEA 10 μg/ml, glycolipid 5 μM): showed affinity to CD1d
- dissociation after 3 days (L363 ELISA signal) (mCD1d.CEA fusion protein; non UV-crosslinked state): almost complete loss of signal
- iNKT stimulation post-dissociation (IL-2 ELISA) [1]: did not stimulate iNKT post-dissociation

- dissociation of CD1d:glycolipid complex after 3 days (L363 ELISA) (plate bound mCD1d; UV irradiated 365 nm 1 hr): dissociated after 3 days
- dissociation of CD1d:glycolipid complex after 3 days (L363 ELISA) (plate bound mCD1d; not UV irradiated): dissociated after 3 days
SMILES: CCCCCCCCCCCCCCCCCCCCCCCCCC(=O)N[C@@H](CO[C@H]1O[C@H](CO)[C@H](O)[C@H](O)[C@H]1O)[C@H](O)[C@H](O)CCCCCCCCCCCCCC [KRN7000, (2S,3S,4R)-1-O-(α-D-galactopyranosyl)-N-hexacosanoyl-2-amino-1,3,4-octadecanetriol, reference compound]

SMILES: CCCCCCCCCCCCCCCCCCCCCCCCCC(=O)N[C@@H](CO[C@H]1O[C@H](CO)[C@H](O)[C@H](O)[C@H]1O)[C@H](O)[C@H](O)CCCCCCCCCCCCCC [αGalCer, α-galactosylceramide]
- iNKT cell response to stimulation with free αGalCer (iNKT cells): results in iNKT cell anergy

- dissociation of CD1d:glycolipid complex after 3 days (L363 ELISA) (plate bound mCD1d; UV irradiated 365 nm 1 hr): no significant dissociation
SMILES: CCCCCCCCCCCCCC[C@@H](O)[C@@H](O)[C@H](COC1OC(CO)C(O)C(O)C1O)NC(=O)CCCCCCCCCOCc1cccc(C(=O)c2ccccc2)c1 (stereo partly drawn) [DB11-2]
- iNKT stimulation, level of IL-2 secreted in the supernatant [3]: stimulated iNKTs most efficiently at a low concentration of 0.1 μg/ml
- iNKT stimulation, level of IL-2 secreted in the supernatant [4]: stimulatory toward iNKT cells
- CD1d/glycolipid complex formation detected by mAb L363 ELISA (plate bound mCD1d; plate bound mCD1d 10 μg/ml, glycolipid 5 μM): highest levels of immunoreactive complex formation
- iNKT hybridoma stimulation following UV crosslinking (IL-2 ELISA) ([1]; UV crosslinked 365 nm 1 hr): second best stimulator
- iNKT stimulation post-dissociation (IL-2 ELISA) [1]: some, albeit reduced, iNKT stimulation even after dissociation
